What follows are compounds tested against T1, EHMT2 (Homo sapiens, UniProt Q96KQ7) (assay: MDA-MB-231 H3K9me2 in-cell Western assay (EHMT2 ICW)). Details: Table VI; read-out: EHMT2 ICW IC50.
T1 construct: host or cells: MDA-MB-231
T1 sequence (Q96KQ7 1-1210): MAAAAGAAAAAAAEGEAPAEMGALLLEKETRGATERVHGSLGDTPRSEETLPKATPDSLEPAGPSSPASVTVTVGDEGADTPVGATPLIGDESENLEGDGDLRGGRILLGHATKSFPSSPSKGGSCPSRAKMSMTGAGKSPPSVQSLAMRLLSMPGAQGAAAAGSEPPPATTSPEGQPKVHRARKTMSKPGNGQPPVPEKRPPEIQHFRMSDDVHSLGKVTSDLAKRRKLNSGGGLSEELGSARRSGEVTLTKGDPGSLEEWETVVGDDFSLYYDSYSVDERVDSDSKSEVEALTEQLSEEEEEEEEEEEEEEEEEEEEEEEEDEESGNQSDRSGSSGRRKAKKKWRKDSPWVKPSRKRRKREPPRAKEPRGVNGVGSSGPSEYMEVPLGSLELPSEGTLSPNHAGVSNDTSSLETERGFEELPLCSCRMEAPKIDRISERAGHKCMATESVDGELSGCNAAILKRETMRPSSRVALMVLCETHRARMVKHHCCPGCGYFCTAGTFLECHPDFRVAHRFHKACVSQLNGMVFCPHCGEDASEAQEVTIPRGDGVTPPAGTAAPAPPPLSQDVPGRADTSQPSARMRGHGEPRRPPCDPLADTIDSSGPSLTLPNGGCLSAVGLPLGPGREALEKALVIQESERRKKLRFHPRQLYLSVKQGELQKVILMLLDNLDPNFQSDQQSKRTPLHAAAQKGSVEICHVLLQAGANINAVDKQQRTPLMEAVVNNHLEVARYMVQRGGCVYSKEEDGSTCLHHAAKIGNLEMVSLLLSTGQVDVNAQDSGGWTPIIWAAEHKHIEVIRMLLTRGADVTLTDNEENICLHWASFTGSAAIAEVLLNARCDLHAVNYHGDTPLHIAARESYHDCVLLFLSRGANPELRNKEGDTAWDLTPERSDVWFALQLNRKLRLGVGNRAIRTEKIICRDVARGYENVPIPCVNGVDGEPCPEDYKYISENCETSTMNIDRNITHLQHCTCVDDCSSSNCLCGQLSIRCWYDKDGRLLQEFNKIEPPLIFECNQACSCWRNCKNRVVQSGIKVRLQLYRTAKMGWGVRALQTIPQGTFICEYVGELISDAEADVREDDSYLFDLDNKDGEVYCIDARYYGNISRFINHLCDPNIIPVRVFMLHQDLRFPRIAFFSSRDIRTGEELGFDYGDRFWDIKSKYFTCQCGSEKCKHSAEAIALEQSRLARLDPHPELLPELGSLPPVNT
Type: cell-based
In short: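 Cellular dimethyl-H3K9 is quantified by in-cell Western in MDA-MB-231 cells treated with compound for 48 h. The H3K9me2 signal at 800 nm is normalised to DRAQ5 nuclear stain at 700 nm. IC50 is calculated from triplicate concentration points by nonlinear regression.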
Compound `COc1cc(NC2CCNCC2)ncc1OCC1CCN(C)C1` (stereo not drawn) [Compound 604] has an IC50 greater than 10 µM.
Compound `COc1nc(NC2CCNCC2)ncc1OCC1CCN(C)C1` (stereo not drawn) [Compound 605] has an IC50 greater than 10 µM.
Compound `CCN1CC(COc2cc(Nc3nc(C)cc4[nH]ncc34)ncc2OC)C1` [Compound 607] has an IC50 of 1 to 10 µM.
For `CNc1cc(C)nc(Nc2cc(OCCCN3CCCC3)n3cnnc3c2)n1` [Compound 628], the IC50 was greater than 10 µM.
`COc1cc(NC2CCNCC2)ncc1OCC1CCNC1` (stereo not drawn) [Compound 629] gave an IC50 greater than 10 µM.
With `CCc1nc(NC2CCNCC2)ncc1OCC1CCN(C)C1` (stereo not drawn) [Compound 630] the IC50 was greater than 10 µM.
For `CCc1nc(NC2CCNCC2)ncc1OCC1CN(C(C)C)C1` [Compound 631], the IC50 was greater than 10 µM.
Work on `CN1CCC(Nc2ncc(OCC3CCN(C)C3)cn2)CC1` (stereo not drawn) [Compound 632] yielded an IC50 greater than 10 µM.
With `CN1CCC(COc2cnc(N(C)C3CCNCC3)nc2)C1` (stereo not drawn) [Compound 633] the IC50 was greater than 10 µM.
For `COc1cc(N(C)C2CCNCC2)ncc1OCC1CCN(C)C1` (stereo not drawn) [Compound 634], the IC50 was greater than 10 µM.
Work on `COc1cc(N(C)C2CCNCC2)ncc1OCC1CCN(C)C1` (stereo not drawn) [Compound 635] yielded an IC50 greater than 10 µM.
With `CC(C)N1CC(COc2cnc(NC3CCNCC3)nc2)C1` [Compound 636] the IC50 was greater than 10 µM.
`CC(C)N1CC[C@@H](COc2cnc(N(C)C3CCNCC3)nc2)C1` [Compound 637] was tested, and the IC50 was greater than 10 µM.
Work on `COc1cnc(Nc2cccn3cncc23)cc1OCCCN1CCCC1` [Compound 638] yielded an IC50 greater than 10 µM.
Compound `COc1cnc(NC(=O)/C=C/CN(C)C)cc1OCCCN1CCCC1` [Compound 640] has an IC50 greater than 10 µM.
For `CNc1cc(C)nc(Nc2cnc(OC)c(OC[C@@H]3CCNC3)c2)n1` [Compound 641], the IC50 was 0.1 to 1 µM.
Work on `COc1cc(Nc2ccc3[nH]ncc3c2)ncc1OCCCN1CCCC1` [Compound 643] yielded an IC50 greater than 10 µM.
Work on `CNc1cc(C)nc(Nc2ccc(OC)c(CNCCN3CCCC3)c2)n1` [Compound 644, 2-N-[4-methoxy-3-([[2-(pyrrolidin-1-yl)ethyl]amino]methyl)phenyl]-4-N,6-dimethylpyrimidine-2,4-diamine] yielded an IC50 of 0.1 to 1 µM.
Work on `CNc1cc(C)nc(Nc2ccc(OC)c(CN(C)CCN3CCCC3)c2)n1` [Compound 645] yielded an IC50 of 1 to 10 µM.
With `CCN1CCC(NCc2cc(Nc3nc(C)cc(NC)n3)ccc2OC)C1` (stereo not drawn) [Compound 646] the IC50 was 1 to 10 µM.
With `CCN1CC(NCc2cc(Nc3nc(C)cc(NC)n3)ccc2OC)C1` [Compound 647] the IC50 was greater than 10 µM.
With `COc1cc(Nc2ccc3[nH]ncc3n2)ncc1OCCCN1CCCC1` [Compound 648] the IC50 was greater than 10 µM.
In the case of `CCN1CC([C@H](C)Oc2cc(Nc3nc(C)cc(NC)n3)ccc2OC)C1` [Compound 649], the IC50 is reported as 0.1 to 1 µM.
`CCN1CC(N(C)Cc2cc(Nc3nc(C)cc(NC)n3)ccc2OC)C1` [Compound 650] gave an IC50 greater than 10 µM.
In the case of `CCN1CCC(N(C)Cc2cc(Nc3nc(C)cc(NC)n3)ccc2OC)C1` (stereo not drawn) [Compound 651], the IC50 is reported as greater than 10 µM.
`COc1cc2c(C3CCN(C)CC3)c(F)c(C)nc2cc1OCCCN1CCCC1` [Compound 652] was tested, and the IC50 was 1 to 10 µM.
Work on `COc1cnc(Nc2cccc3nccn23)nc1OCCCN1CCCC1` [Compound 654] yielded an IC50 greater than 10 µM.
For `COc1cnc(Nc2cccc3[nH]ncc23)nc1OCCCN1CCCC1` [Compound 655], the IC50 was greater than 10 µM.
`COc1cnc(Nc2cccc3nncn23)nc1OCCCN1CCCC1` [Compound 656] gave an IC50 greater than 10 µM.
With `COc1cc2c(C3CCN(C)CC3)nc(C)nc2cc1OCCCN1CCCC1` [Compound 658] the IC50 was greater than 10 µM.
In the case of `COc1cc2c(C3CCN(C(C)C)CC3)nc(C)nc2cc1OCCCN1CCCC1` [Compound 659], the IC50 is reported as greater than 10 µM.
For `CCN1CC(COc2cc3nc(C)cc(C4CCN(C)CC4)c3cc2OC)C1` [Compound 660], the IC50 was 1 to 10 µM.
For `CCN1CC(COc2cc3nc(C)cc(C4CCN(C(C)C)CC4)c3cc2OC)C1` [Compound 661], the IC50 was 1 to 10 µM.
In the case of `CCN1CC[C@@H](COc2cc3nc(C)cc(C4CCN(C)CC4)c3cc2OC)C1` [Compound 662], the IC50 is reported as 0.1 to 1 µM.
`CCN1CC[C@@H](COc2cc3nc(C)cc(C4CCN(C(C)C)CC4)c3cc2OC)C1` [Compound 663] showed an IC50 of 0.1 to 1 µM.
In the case of `CCN1CC(COc2cc3nc(C)nc(C4CCN(C)CC4)c3cc2OC)C1` [Compound 664], the IC50 is reported as greater than 10 µM.

From patent US20210198277A1, “AMINE-SUBSTITUTED ARYL OR HETEROARYL COMPOUNDS” (Epizyme, Inc., priority 2016, published 2021)
